Laboratory results published in patent US12655116B2, “Substituted isophthalic acid diamides” (Bayer Aktiengesellschaft, priority 2020, dated 2026).

Key:
[1] = test system: ALOMY; experiment: Post-emergence herbicidal action against ALOMY; assay type: in vivo, Alopecurus myosuroides; conditions: Alopecurus myosuroides, 504 h, visual assessment about 3 weeks after treatment vs untreated controls; for pest or weed control at 20 g/ha: dosage 20 g/ha
Method in brief: (§1)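 Greenhouse plants in sandy loam were sprayed at the one-leaf stage, 2 to 3 weeks after sowing, with WP or EC formulations as aqueous suspension or emulsion (600 to 800 l/ha water, 0.2% wetting agent). Visual damage was scored about 3 weeks later versus untreated controls, 0% = like control, 100% = dead.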

[2] = test system: ECHCG; experiment: Post-emergence herbicidal action against ECHCG; assay type: in vivo, Echinochloa crus-galli; conditions: Echinochloa crus-galli, 504 h; for pest or weed control at 20 g/ha: dosage 20 g/ha
Method in brief: as §1

[3] = test system: VERPE; experiment: Pre-emergence herbicidal action against VERPE; assay type: in vivo, Veronica persica; conditions: Veronica persica, 504 h
Method in brief: (§2)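 Pre-emergence soil-surface spray of formulated compound (WP or EC; 600 to 800 l/ha; 0.2% wetting agent) over seeds sown in sandy loam. After 3 weeks under greenhouse conditions, damage is estimated visually in percent against untreated plants.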

[4] = test system: AVEFA; experiment: Pre-emergence herbicidal action against AVEFA; assay type: in vivo, Avena fatua; conditions: Avena fatua, 504 h, pre-emergence
Method in brief: as §2

[5] = test system: ABUTH; experiment: Post-emergence herbicidal action against ABUTH; assay type: in vivo, Abutilon theophrasti; conditions: Abutilon theophrasti, 504 h, visual assessment about 3 weeks after treatment vs untreated controls; for pest or weed control at 20 g/ha: dosage 20 g/ha
Method in brief: as §1

[6] = test system: SETVI; experiment: Post-emergence herbicidal action against SETVI; assay type: in vivo, Setaria viridis; conditions: Setaria viridis, 504 h
Method in brief: as §1

[7] = test system: AMARE; experiment: Post-emergence herbicidal action against AMARE; assay type: in vivo, Amaranthus retroflexus; conditions: Amaranthus retroflexus, 504 h, visual assessment about 3 weeks after treatment, 100% = plants have died, 0% = like control plants
Method in brief: as §1

[8] = test system: STEME; experiment: Pre-emergence herbicidal action against STEME; assay type: in vivo, Stellaria media; conditions: Stellaria media, 504 h; for pest or weed control at 80 g/ha: dosage 80 g/ha
Method in brief: as §2

[9] = test system: LOLRI; experiment: Pre-emergence herbicidal action against LOLRI; assay type: in vivo, Lolium rigidum; conditions: Lolium rigidum, 504 h, 80 g/ha
Method in brief: as §2

[10] = test system: AVEFA; experiment: Post-emergence herbicidal action against AVEFA; assay type: in vivo, Avena fatua; conditions: Avena fatua, 504 h, visual assessment about 3 weeks after treatment, 100% = plants have died, 0% = like control plants
Method in brief: as §1

[11] = test system: HORMU; experiment: Post-emergence herbicidal action against HORMU; assay type: in vivo, Hordeum murinum; conditions: Hordeum murinum, 504 h; for pest or weed control at 20 g/ha: dosage 20 g/ha
Description: Seeds of monocotyledonous and dicotyledonous weed and crop plants are laid out in sandy loam soil in wood-fiber pots, covered with soil and cultivated in a greenhouse under good growth conditions. 2 to 3 weeks after sowing, the test plants are treated at the one-leaf stage. The compounds of the invention, formulated in the form of wettable powders (WP) or as emulsion concentrates (EC), are then sprayed onto the green parts of the plants in the form of an aqueous suspension or emulsion at a water application rate equivalent to 600 to 800 l/ha, with addition of 0.2% wetting agent. After the test plants have been left to stand in the greenhouse under optimal growth conditions for about 3 weeks, the action of the preparations is assessed visually in comparison to untreated controls (herbicidal action in percent (%): 100% activity=the plants have died, 0% activity=like control plants). […] The tables below illustrate, in an illustrative manner, the post-emergence herbicidal action of the compounds of the invention, the herbicidal activity being stated in percent.

[12] = test system: ALOMY; experiment: Pre-emergence herbicidal action against ALOMY; assay type: in vivo, Alopecurus myosuroides; conditions: Alopecurus myosuroides, 504 h, pre-emergence
Method in brief: as §2

[13] = test system: DIGSA; experiment: Pre-emergence herbicidal action against DIGSA; assay type: in vivo, Digitaria sanguinalis; conditions: Digitaria sanguinalis, 504 h; for pest or weed control at 80 g/ha: dosage 80 g/ha
Method in brief: as §2

[14] = test system: SETVI; experiment: Pre-emergence herbicidal action against SETVI; assay type: in vivo, Setaria viridis; conditions: Setaria viridis, 504 h; for pest or weed control at 80 g/ha: dosage 80 g/ha
Method in brief: as §2

[15] = test system: PHBPU; experiment: Post-emergence herbicidal action against PHBPU; assay type: in vivo, Pharbitis purpurea; conditions: Ipomoea purpurea, 504 h
Method in brief: as §1

[16] = test system: MATIN; experiment: Pre-emergence herbicidal action against MATIN; assay type: in vivo, Matricaria inodora; conditions: Tripleurospermum inodorum, 504 h; for pest or weed control at 80 g/ha: dosage 80 g/ha
Method in brief: as §2

[17] = test system: MATIN; experiment: Post-emergence herbicidal action against MATIN; assay type: in vivo, Matricaria inodora; conditions: Tripleurospermum inodorum, 504 h; for pest or weed control at 20 g/ha: dosage 20 g/ha
Method in brief: as §1

[18] = test system: STEME; experiment: Post-emergence herbicidal action against STEME; assay type: in vivo, Stellaria media; conditions: Stellaria media, 504 h
Method in brief: as §1

[19] = test system: VIOTR; experiment: Post-emergence herbicidal action against VIOTR; assay type: in vivo, Viola tricolor; conditions: Viola tricolor, 504 h
Method in brief: as §1

[20] = test system: ABUTH; experiment: Pre-emergence herbicidal action against ABUTH; assay type: in vivo, Abutilon theophrasti; conditions: Abutilon theophrasti, 504 h; for pest or weed control at 80 g/ha: scored visually after 3 weeks vs untreated controls (100% = plants have died, 0% = like control plants)
Method in brief: as §2

[21] = test system: AMARE; experiment: Pre-emergence herbicidal action against AMARE; assay type: in vivo, Amaranthus retroflexus; conditions: Amaranthus retroflexus, 504 h, 100% = plants have died, 0% = like control plants
Method in brief: as §2

[22] = test system: VERPE; experiment: Post-emergence herbicidal action against VERPE; assay type: in vivo, Veronica persica; conditions: Veronica persica, 504 h
Method in brief: as §1

[23] = test system: PHBPU; experiment: Pre-emergence herbicidal action against PHBPU; assay type: in vivo, Pharbitis purpurea; conditions: Ipomoea purpurea, 504 h, dosage 80 g/ha
Method in brief: as §2

[24] = test system: POLCO; experiment: Pre-emergence herbicidal action against POLCO; assay type: in vivo, Polygonum convolvulus; conditions: Fallopia convolvulus, 504 h, dosage 80 g/ha
Method in brief: as §2

[25] = test system: DIGSA; experiment: Post-emergence herbicidal action against DIGSA; assay type: in vivo, Digitaria sanguinalis; conditions: Digitaria sanguinalis, 504 h
Method in brief: as §1

[26] = test system: ECHCG; experiment: Pre-emergence herbicidal action against ECHCG; assay type: in vivo, Echinochloa crus-galli; conditions: Echinochloa crus-galli, 504 h
Method in brief: as §2

[27] = test system: VIOTR; experiment: Pre-emergence herbicidal action against VIOTR; assay type: in vivo, Viola tricolor; conditions: Viola tricolor, 504 h; for pest or weed control at 80 g/ha: dosage 80 g/ha
Method in brief: as §2

[28] = test system: HORMU; experiment: Pre-emergence herbicidal action against HORMU; assay type: in vivo, Hordeum murinum; conditions: Hordeum murinum, 504 h; 320 g/ha, pre-emergence
Method in brief: as §2

[29] = scored visually after 3 weeks vs untreated controls
[30] = 320 g/ha, scored visually after 3 weeks, 100% = plants have died, 0% = like control plants

CNC(=O)c1c(C(F)F)ccc(C(=O)Nc2nnnn2C)c1SC [Example 1-87]
90%: pest or weed control at 80 g/ha ([3]; dosage 80 g/ha) | pest or weed control at 80 g/ha [4] | pest or weed control at 5 g/ha ([5]; dosage 5 g/ha) | pest or weed control at 20 g/ha [5] | pest or weed control at 20 g/ha ([6]; dosage 20 g/ha) | pest or weed control at 20 g/ha ([8]; dosage 20 g/ha) | pest or weed control at 80 g/ha ([12]; 80 g/ha, scored visually after 3 weeks vs untreated controls (100% = plants have died, 0% = like control plants)) | pest or weed control at 20 g/ha ([15]; dosage 20 g/ha) | pest or weed control at 80 g/ha [16] | pest or weed control at 20 g/ha ([21]; 20 g/ha, scored visually after 3 weeks vs untreated controls) | pest or weed control at 20 g/ha ([22]; 20 g/ha) | pest or weed control at 80 g/ha [24]
80%: pest or weed control at 20 g/ha [1] | pest or weed control at 5 g/ha ([2]; dosage 5 g/ha) | pest or weed control at 20 g/ha [2] | pest or weed control at 5 g/ha ([6]; dosage 5 g/ha) | pest or weed control at 80 g/ha [9] | pest or weed control at 20 g/ha ([10]; 20 g/ha) | pest or weed control at 20 g/ha [11] | pest or weed control at 5 g/ha ([15]; dosage 5 g/ha) | pest or weed control at 20 g/ha ([16]; dosage 20 g/ha) | pest or weed control at 20 g/ha [17] | pest or weed control at 5 g/ha ([18]; dosage 5 g/ha) | pest or weed control at 20 g/ha ([19]; 20 g/ha) | pest or weed control at 5 g/ha ([22]; 5 g/ha) | pest or weed control at 80 g/ha [23] | pest or weed control at 20 g/ha ([27]; dosage 20 g/ha)
100%: pest or weed control at 20 g/ha ([7]; 20 g/ha) | pest or weed control at 80 g/ha [8] | pest or weed control at 20 g/ha ([13]; dosage 20 g/ha) | pest or weed control at 80 g/ha [13] | pest or weed control at 80 g/ha [14] | pest or weed control at 20 g/ha [18] | pest or weed control at 80 g/ha [20] | pest or weed control at 20 g/ha ([20]; dosage 20 g/ha, scored visually after 3 weeks vs untreated controls, 100% = plants have died, 0% = like control plants, read-out: Pre-emergence action against ABUTH (herbicidal activity in percent)) | pest or weed control at 80 g/ha [21, 29] | pest or weed control at 5 g/ha ([25]; 5 g/ha) | pest or weed control at 20 g/ha [25] | pest or weed control at 80 g/ha [26] | pest or weed control at 80 g/ha [27]

CCNC(=O)c1c(C(F)(F)F)ccc(C(=O)Nc2nnc(C)o2)c1Cl [Example 6-117]
80%: pest or weed control at 20 g/ha [1] | pest or weed control at 20 g/ha [2] | pest or weed control at 80 g/ha ([2]; dosage 80 g/ha) | pest or weed control at 20 g/ha [5] | pest or weed control at 80 g/ha ([5]; dosage 80 g/ha) | pest or weed control at 80 g/ha ([7]; 80 g/ha) | pest or weed control at 20 g/ha [11] | pest or weed control at 80 g/ha ([15]; dosage 80 g/ha) | pest or weed control at 80 g/ha ([19]; 80 g/ha) | pest or weed control at 80 g/ha ([22]; 80 g/ha) | pest or weed control at 20 g/ha [25] | pest or weed control at 80 g/ha [27]
100%: pest or weed control at 320 g/ha [28] | pest or weed control at 80 g/ha [4] | pest or weed control at 320 g/ha [4, 30] | pest or weed control at 80 g/ha [8] | pest or weed control at 320 g/ha ([8]; dosage 320 g/ha) | pest or weed control at 80 g/ha [13] | pest or weed control at 320 g/ha ([13]; dosage 320 g/ha) | pest or weed control at 80 g/ha [14] | pest or weed control at 320 g/ha ([14]; dosage 320 g/ha) | pest or weed control at 80 g/ha [16] | pest or weed control at 320 g/ha ([16]; dosage 320 g/ha) | pest or weed control at 80 g/ha [20] | pest or weed control at 320 g/ha ([20]; Dosage: 320 g/ha, scored visually after 3 weeks, 100% = plants have died, 0% = like control plants) | pest or weed control at 80 g/ha [21, 29] | pest or weed control at 320 g/ha ([21]; 320 g/ha, scored visually after 3 weeks) | pest or weed control at 320 g/ha ([26]; 320 g/ha) | pest or weed control at 320 g/ha ([27]; dosage 320 g/ha)
90%: pest or weed control at 80 g/ha ([1]; dosage 80 g/ha) | pest or weed control at 320 g/ha ([3]; dosage 320 g/ha) | pest or weed control at 80 g/ha ([10]; 80 g/ha) | pest or weed control at 80 g/ha ([11]; dosage 80 g/ha) | pest or weed control at 320 g/ha [12, 30] | pest or weed control at 20 g/ha [17] | pest or weed control at 80 g/ha ([17]; dosage 80 g/ha) | pest or weed control at 20 g/ha [18] | pest or weed control at 80 g/ha ([18]; 80 g/ha) | pest or weed control at 80 g/ha ([25]; 80 g/ha) | pest or weed control at 80 g/ha [26]
